Measurements published in patent US20080139842A1, “Medicament for preventive and/or therapeutic treatment of diseases with secretory disorder” (R&R INC., priority 2006, published 2008).

What was measured:
Format in all cases: in vivo, female NOD/Shi Jic mice
[1] = system: submaxillary glands of NOD mice; test: Evaluation in NOD mice: histopathological evaluation of submaxillary glands (Sjoegren's syndrome model); details: 1 mg/kg mixed in feed over 19 weeks, N = 6, score 0 no lesion to 3 severe, control group 1.7
Text: (§1) NOD mice have been used as spontaneous type I diabetes and Sjoegren's syndrome model animals. Lymphocyte infiltration lesions similar to those of type I diabetes are developed in the pancreatic islets of Langerhans, and lymphocyte infiltration lesions similar to those of Sjoegren's syndrome are developed in the salivary glands (Eur. J. Immunol., 28, pp. 3336-3345, 1998). To female NOD/Shi Jic mice at 6 weeks of age, tamibarotene (Am80, 4-[(5,6,7,8-tetrahydro-5,5,8,8-tetramethyl-2-naphthalenyl)carbamoyl]benzoic acid) was administered over 19 weeks by mixing it in feed. During the test period, urinalysis was conducted once every week to measure urinary sugar. Test paper for urinalyses, Pre Test 3aII (Wako Pure Chemical Industries), was immersed in mouse fresh urine, and when a determined glucose value was 2,000 mg/dl or higher, the mouse was judged to be with diabetes. When the mice gave a sign of physical agony, they were euthanized. After the end of the administration period, pancreases and submaxillary glands were extracted from the euthanized mice, and fixed by immersion in a neutrally buffered 10% formalin fixation solution. From the fixed pancreases and submaxillary glands, hematoxin-eosin stained histopathological specimens were prepared, and the influence of tamibarotene on the pancreases and salivary glands was histopathologically evaluated. […]

[2] = system: pancreatic islets of Langerhans of NOD mice; test: Evaluation in NOD mice: histopathological evaluation of pancreases (islets of Langerhans); details: 1 mg/kg mixed in feed over 19 weeks, N = 6; for Pancreatic La islet lymphocyte infiltration score (average): score 0 no lesion, 1 slight, 2 moderate, 3 severe, control group 2.7
Text: NOD mice have been used as spontaneous type I diabetes and Sjoegren's syndrome model animals. Lymphocyte infiltration lesions similar to those of type I diabetes are developed in the pancreatic islets of Langerhans, and lymphocyte infiltration lesions similar to those of Sjoegren's syndrome are developed in the salivary glands (Eur. J. Immunol., 28, pp. 3336-3345, 1998). To female NOD/Shi Jic mice at 6 weeks of age, tamibarotene (Am80, 4-[(5,6,7,8-tetrahydro-5,5,8,8-tetramethyl-2-naphthalenyl)carbamoyl]benzoic acid) was administered over 19 weeks by mixing it in feed. During the test period, urinalysis was conducted once every week to measure urinary sugar. Test paper for urinalyses, Pre Test 3aII (Wako Pure Chemical Industries), was immersed in mouse fresh urine, and when a determined glucose value was 2,000 mg/dl or higher, the mouse was judged to be with diabetes. When the mice gave a sign of physical agony, they were euthanized. After the end of the administration period, pancreases and submaxillary glands were extracted from the euthanized mice, and fixed by immersion in a neutrally buffered 10% formalin fixation solution. From the fixed pancreases and submaxillary glands, hematoxin-eosin stained histopathological specimens were prepared, and the influence of tamibarotene on the pancreases and salivary glands was histopathologically evaluated. For each of the tamibarotene-administered group and the control group, 6 mice were used.
The results are indicated by numbers of urinary sugar positive mice, scores for destruction of the pancreatic islets of Langerhans (henceforth occasionally abbreviated as “Pancreatic La islet”) associated with lymphocyte infiltration (Pancreatic La islet lymphocyte infiltration score), scores for decrease in number of the pancreatic islets of Langerhans (Pancreatic La islet number score), and submaxillary gland lymphocyte infiltration scores. The scores were determined according to the following criteria.
0: No lesion was observed

[3] = system: NOD mice (spontaneous type I diabetes model); test: Evaluation in NOD mice: weekly urinalysis for urinary sugar (diabetes onset); details: 1 mg/kg mixed in feed over 19 weeks from 6 weeks of age, N = 6, positive = urinary glucose 2,000 mg/dl or higher, control group 2/6
Text: as §1

CC1(C)CCC(C)(C)c2cc(NC(=O)c3ccc(C(=O)O)cc3)ccc21 [Tamibarotene, 4-[(5,6,7,8-tetrahydro-5,5,8,8-tetramethyl-2-naphthalenyl)carbamoyl]benzoic acid]
Submaxillary gland lymphocyte infiltration score (average) [1]: 0.8
Submaxillary gland lymphocyte infiltration score (average) ([1]; listed as tamibarotene): reduced
Pancreatic La islet lymphocyte infiltration score (average) [2]: 1.7
Pancreatic La islet lymphocyte infiltration score (average) ([2]; listed as tamibarotene): apparently reduced
Pancreatic La islet number score (average) ([2]; score for decrease in number of islets, score 0 no lesion to 3 severe, control group 1): 0
Urinary sugar positive mice [3]: 0/6
Urinary sugar positive mice ([3]; listed as tamibarotene): no urinary sugar positive mouse was observed
